# Experimental data as given in patent US20230011869A1 (Hoffmann-La Roche Inc., priority 2018, published 2023).
# Structures can show the parent of a compound that is named as a salt.
# Test system: Acinetobacter baumannii ATCC17978
# Assay: Antimicrobial susceptibility testing: 90% growth inhibitory concentration (IC90) determination, Iso-Sensitest broth
# Format: cell-based
# Details: 90% growth inhibitory concentration, Acinetobacter baumannii ATCC17978, Iso-Sensitest broth, OD 600 nm over 16 h; read-out: ATCC17978 IC90
# Outline: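 A. baumannii ATCC17978 grown in Iso-Sensitest broth across 10 compound concentrations at 35±2 °C.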
row,IC90 [nM],SMILES
1,922,"COc1ccc(-c2cnc3c(Nc4ccc(C(=O)N5CCC(C(=O)N6CCN[C@@H](C(=O)O)C6)CC5)c(C)c4)nccn23)cc1F [Example 558, (R)-4-(1-(4-((3-(3-fluoro-4-methoxyphenyl)imidazo[1,2-a]pyrazin-8-yl)amino)-2-methylbenzoyl)piperidine-4-carbonyl)piperazine-2-carboxylic acid hydrochloride]"
2,370,"COc1ccc(-c2cnc3c(Nc4ccc(C(=O)N5CCC(C(=O)N6C[C@H](O)[C@@H](O)[C@H](O)[C@H]6CO)CC5)c(C)c4)nccn23)c(F)c1F [Example 566, (1-(4-((3-(2,3-difluoro-4-methoxyphenyl)imidazo[1,2-a]pyrazin-8-yl)amino)-2-methylbenzoyl)piperidin-4-yl)((2R,3R,4R,5S)-3,4,5-trihydroxy-2-(hydroxymethyl)piperidin-1-yl)methanone]"
3,229,"COc1ccc(-c2cnc3c(Nc4ccc(C(=O)N5CCC(C(=O)NCC(O)CN6CCCC6)CC5)c(C)c4)nccn23)cc1F (centres unmarked) [Example 568, 1-(4-((3-(3-fluoro-4-methoxyphenyl)imidazo[1,2-a]pyrazin-8-yl)amino)-2-methylbenzoyl)-N-(2-hydroxy-3-(pyrrolidin-1-yl)propyl)piperidine-4-carboxamide]"

# Same assay, conditions: Acinetobacter baumannii, ATCC17978, 16 h, read-out: ATCC17978 IC90, 90% growth inhibitory concentration, Acinetobacter baumannii ATCC17978, Iso-Sensitest broth, OD 600 nm over 16 h
row,SMILES,IC90 [nM]
1,"COc1ccc(-c2cnc3c(Nc4ccc(C(=O)N5CCN(C(=O)[C@@H]6C[C@@H](OC(=O)[C@@H](N)C(C)C)CN6)CC5)c(C)c4)nccn23)c(F)c1F [Example 552, [(3R,5S)-5-[4-[4-[[3-(2,3-difluoro-4-methoxy-phenyl)imidazo[1,2-a]pyrazin-8-yl]amino]-2-methyl-benzoyl]piperazine-1-carbonyl]pyrrolidin-3-yl] (2S)-2-amino-3-methyl-butanoate]",186
2,"Cc1cc(Nc2nccn3c(-c4ccc(OC(F)F)cc4)cnc23)ccc1C(=O)N1CCC(C(=O)NC[C@H](O)CN)CC1 [Example 553, (R)-N-(3-amino-2-hydroxypropyl)-1-(4-((3-(4-(difluoromethoxy)phenyl)imidazo [1,2-a]pyrazin-8-yl)amino)-2-methylbenzoyl)piperidine-4-carboxamide formate]",227
3,"Cc1cc(Nc2nccn3c(-c4ccc(OC(F)F)cc4)cnc23)ccc1C(=O)N1CCC(C(=O)NC[C@@H](O)CN)CC1 [Example 554, (S)-N-(3-amino-2-hydroxypropyl)-1-(4-((3-(4-(difluoromethoxy)phenyl)imidazo [1,2-a]pyrazin-8-yl)amino)-2-methylbenzoyl)piperidine-4-carboxamide formate]",344
4,"CCc1cc(Nc2nccn3c(-c4ccc(OC(C)C#N)c(F)c4F)cnc23)ccc1C(=O)N1CCN(CCN(C)C)CC1 (centres unmarked) [Example 557, 2-(4-(8-((4-(4-(2-(dimethylamino)ethyl)piperazine-1-carbonyl)-3-ethylphenyl)amino)imidazo[1,2-a]pyrazin-3-yl)-2,3-difluorophenoxy)propanenitrile]",694
5,"Cc1cc(Nc2nccn3c(-c4ccc(O[C@H](C)C#N)c(F)c4F)cnc23)ccc1C(=O)N1CCN(C(=O)[C@@H]2C[C@@H](O)CN2)CC1 [Example 559, (2R)-2-[2,3-difluoro-4-[8-[4-[4-[(2S,4R)-4-hydroxypyrrolidine-2-carbonyl]piperazine-1-carbonyl]-3-methyl-anilino]imidazo[1,2-a]pyrazin-3-yl]phenoxy]propanenitrile formate]",699
6,"Cc1cc(Nc2nccn3c(-c4ccc(O[C@H](C)C#N)c(F)c4F)cnc23)ccc1C(=O)N1CCN(C(=O)C2(O)CCNCC2)CC1 [Example 560, (2R)-2-[2,3-difluoro-4-[8-[4-[4-(4-hydroxypiperidine-4-carbonyl)piperazine-1-carbonyl]-3-methyl-anilino]imidazo[1,2-a]pyrazin-3-yl]phenoxy]propanenitrile formate]",746
7,"COc1ccc(-c2cnc3c(Nc4ccc(C(=O)N5CCN(C(=O)[C@@H]6C[C@@H](OC(=O)[C@@H](N)CCCCN)CN6)CC5)c(C)c4)nccn23)c(F)c1F [Example 561, [(3R,5S)-5-[4-[4-[[3-(2,3-difluoro-4-methoxy-phenyl)imidazo[1,2-a]pyrazin-8-yl]amino]-2-methyl-benzoyl]piperazine-1-carbonyl]pyrrolidin-3-yl] (2S)-2,6-diaminohexanoate formate]",123
8,"COc1ccc(-c2cnc3c(Nc4ccc(C(=O)N5CCN(C(=O)[C@@H]6C[C@@H](OC(=O)CN)CN6)CC5)c(C)c4)nccn23)c(F)c1F [Example 562, [(3R,5S)-5-[4-[4-[[3-(2,3-difluoro-4-methoxy-phenyl)imidazo[1,2-a]pyrazin-8-yl]amino]-2-methyl-benzoyl]piperazine-1-carbonyl]pyrrolidin-3-yl]2-aminoacetate formate]",112
9,"COc1ccc(-c2cnc3c(Nc4ccc(C(=O)N5CCN(C(=O)[C@@H]6C[C@@H](OC(=O)[C@@H](N)CO)CN6)CC5)c(C)c4)nccn23)c(F)c1F [Example 563, [(3R,5S)-5-[4-[4-[[3-(2,3-difluoro-4-methoxy-phenyl)imidazo[1,2-a]pyrazin-8-yl]amino]-2-methyl-benzoyl]piperazine-1-carbonyl]pyrrolidin-3-yl] (2S)-2-amino-3-hydroxy-propanoate formate]",135
10,"CCC(C#N)Oc1ccc(-c2cnc3c(Nc4ccc(C(=O)N5CCC(CN)CC5)c(C)c4)nccn23)c(F)c1F (centres unmarked) [Example 564, 2-(4-(8-((4-(4-(aminomethyl)piperidine-1-carbonyl)-3-methylphenyl)amino)imidazo [1,2-a]pyrazin-3-yl)-2,3-difluorophenoxy)butanenitrile formate]",969
11,"COc1ccc(-c2cnc3c(Nc4ccc(C(=O)N5CCN(C(=O)[C@@H]6C[C@@H](OC(=O)[C@@H](N)CCC(N)=O)CN6)CC5)c(C)c4)nccn23)c(F)c1F [Example 565, [(3R,5S)-5-[4-[4-[[3-(2,3-difluoro-4-methoxy-phenyl)imidazo[1,2-a]pyrazin-8-yl]amino]-2-methyl-benzoyl]piperazine-1-carbonyl]pyrrolidin-3-yl] (2S)-2,5-diamino-5-oxo-pentanoate formate]",109
12,"Cc1cc(Nc2nccn3c(-c4ccc(O[C@H](C)C#N)c(F)c4F)cnc23)ccc1C(=O)N1CCN(C(=O)[C@@H]2C[C@](C)(O)CN2)CC1 [Example 567, (2R)-2-[2,3-difluoro-4-[8-[4-[4-[(2S,4S)-4-hydroxy-4-methyl-pyrrolidine-2-carbonyl]piperazine-1-carbonyl]-3-methyl-anilino]imidazo[1,2-a]pyrazin-3-yl]phenoxy]propanenitrile formate]",386

# Test system: Acinetobacter baumannii ATCC17961
# Assay: as above
# Format: cell-based
# Details: Acinetobacter baumannii, ATCC17961, 16 h, 90% growth inhibitory concentration, Acinetobacter baumannii ATCC17961, Iso-Sensitest broth, OD 600 nm over 16 h; read-out: ATCC17961 IC90
# Protocol: Antimicrobial Susceptibility Testing:
# 90% Growth Inhibitory Concentration (IC90) Determination
# The in vitro antimicrobial activity of the compounds was determined according to the following procedure:
# The assay used a 10-points Iso-Sensitest broth medium to measure quantitatively the in vitro activity of the compounds against Acinetobacter baumannii ATCC17978 and Acinetobacter baumannii ATCC17961.
# Stock compounds in DMSO were serially twofold diluted (e.g. range from 50 to 0.097 μM final concentration) in 384 wells microtiter plates and inoculated with 49 μl the bacterial suspension in Iso-Sensitest medium to have a final cell concentration of 5×10^(5) CFU/ml in a final volume/well of 50 ul/well. Microtiter plates were incubated at 35±2° C.
# Bacterial cell growth was determined with the measurement of optical density at λ=600 nm each 20 minutes over a time course of 16 h. Growth inhibition was calculated during the logarithmic growth of the bacterial cells with determination of the concentration inhibiting 50% (IC50) and 90% (IC90) of the growth.
# Table 1 provides the 90% growth inhibitory concentrations (IC90) in micromoles per liter of the compounds of present invention obtained against the strain Acinetobacter baumannii ATCC17978 and Acinetobacter baumannii ATCC17961.
row,IC90 [nM],SMILES
1,98,"COc1ccc(-c2cnc3c(Nc4ccc(C(=O)N5CCN(C(=O)[C@H]6NC[C@H]7C[C@H]76)CC5)c(C)c4)nccn23)c(F)c1F (racemic) [Example 82, (4-((1R,2S,5S)-3-azabicyclo[3.1.0]hexane-2-carbonyl)piperazin-1-yl)(4-((3-(2,3-difluoro-4-methoxyphenyl)imidazo[1,2-a]pyrazin-8-yl)amino)-2-methylphenyl)methanone hydrochloride]"
2,35,"Cc1cc(Nc2nccn3c(-c4ccc(OC(F)F)cc4)cnc23)ccc1C(=O)N1CCN(C(=O)N[C@@H]2CNC[C@H]2O)CC1 (racemic) [Example 170, 4-[4-[[3-[4-(difluoromethoxy)phenyl]imidazo[1,2-a]pyrazin-8-yl]amino]-2-methyl-benzoyl]-N-[rac-(3R,4R)-4-hydroxypyrrolidin-3-yl]piperazine-1-carboxamide hydrochloride]"
3,104,"COc1ccc(-c2cnc3c(Nc4ccc(C(=O)N5CCN(C(=O)[C@H]6C[C@H](O)CN6)CC5)c(C)c4)nccn23)c(F)c1F (racemic) [Example 228, [4-[[3-(2,3-difluoro-4-methoxy-phenyl)imidazo[1,2-a]pyrazin-8-yl]amino]-2-methyl-phenyl]-[4-[rac-(2R,4S)-4-hydroxy-pyrrolidine-2-carbonyl]piperazin-1-yl]methanone]"
4,81,"COc1ccc(-c2cnc3c(Nc4ccc(C(=O)NC5CCC(NC(=O)[C@H]6C[C@H](O)CN6)C5)c(C)c4)nccn23)c(F)c1F (mixture of isomers) [Example 458, rac-(2R,4S)-N-[3-[[4-[[3-(2,3-difluoro-4-methoxyphenyl)imidazo[1,2-a]pyrazin-8-yl]amino]-2-methylbenzoyl]amino]cyclo-pentyl]-4-hydroxypyrrolidine-2-carboxamide]"
5,47,"Cc1cc(Nc2nccn3c(-c4ccc(OCC#N)c(F)c4Cl)cnc23)ccc1C(=O)N1CCN(C(=O)[C@@H]2CCNC[C@@H]2O)CC1 (relative stereo) [Example 223, 2-[3-chloro-2-fluoro-4-[8-[4-[4-[(3R,4R)-3-hydroxypiperidine-4-carbonyl]piperazine-1-carbonyl]-3-methyl-anilino]imidazo[1,2-a]pyrazin-3-yl]phenoxy] acetonitrile formate]"
